Results from US20240158446A1, “CYCLIC COMPOUND HAVING SELECTIVE INHIBITORY ACTION ON KRAS OVER HRAS AND NRAS” (CHUGAI SEIYAKU KABUSHIKI KAISHA, priority 2021, published 2024).

How the values were obtained:
[1] = target: GDP-bound KRAS wild-type protein (Homo sapiens, UniProt P01116); experiment: Binding to KRAS by surface plasmon resonance (SPR), Single Cycle Kinetics; details: SPR Single Cycle Kinetics, GDP-bound KRAS wild-type protein, 1:1 binding model; read-out: KRAS KD
[2] = target: GDP-bound NRAS wild-type protein (Homo sapiens, UniProt P01111); experiment: Binding to NRAS by surface plasmon resonance (SPR), Single Cycle Kinetics; details: SPR, GDP-bound NRAS wild-type protein vs GDP-bound KRAS wild-type protein
GDP-bound NRAS wild-type protein, sequence (P01111 whole entry): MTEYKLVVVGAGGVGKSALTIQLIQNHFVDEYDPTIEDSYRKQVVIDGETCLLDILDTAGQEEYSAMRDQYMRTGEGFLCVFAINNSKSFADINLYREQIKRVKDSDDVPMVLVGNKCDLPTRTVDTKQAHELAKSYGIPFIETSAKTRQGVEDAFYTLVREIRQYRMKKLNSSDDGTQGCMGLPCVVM

[3] = target: GDP-bound HRAS wild-type protein (Homo sapiens, UniProt P01112); experiment: Binding to HRAS by surface plasmon resonance (SPR), Single Cycle Kinetics; details: SPR, GDP-bound HRAS wild-type protein vs GDP-bound KRAS wild-type protein
GDP-bound HRAS wild-type protein, sequence (P01112 whole entry): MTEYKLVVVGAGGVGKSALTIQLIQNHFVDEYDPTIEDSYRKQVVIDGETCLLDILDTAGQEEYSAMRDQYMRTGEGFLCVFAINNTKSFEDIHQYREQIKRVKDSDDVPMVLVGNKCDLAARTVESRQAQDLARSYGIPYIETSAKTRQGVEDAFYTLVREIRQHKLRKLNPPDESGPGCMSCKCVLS

GDP-bound KRAS wild-type protein, sequence (P01116 whole entry): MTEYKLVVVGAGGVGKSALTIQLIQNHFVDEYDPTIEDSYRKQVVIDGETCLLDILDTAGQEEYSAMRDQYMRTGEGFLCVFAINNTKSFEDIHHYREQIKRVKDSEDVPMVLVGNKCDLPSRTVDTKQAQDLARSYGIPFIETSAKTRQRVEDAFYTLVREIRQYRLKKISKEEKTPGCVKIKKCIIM

Compound | Kd [1] | NRAS/KRAS (ratio of KD value with respect to NRAS to KD value with respect to KRAS) [2] | HRAS/KRAS (ratio of KD value with respect to HRAS to KD value with respect to KRAS) [3]
CC[C@H](C)[C@@H]1NC(=O)[C@H](CC(C)C)N(C)C(=O)C[C@@H](C(=O)N2CCOCC2)N(C)C(=O)[C@H](C2CCCC2)N(C)C(=O)C2(CC(F)(F)C2)NC(=O)[C@@H]2CCCN2C(=O)[C@H](CCc2cc(F)c(C(F)(F)F)c(F)c2)NC(=O)CN(C)C(=O)[C@H](Cc2ccc(C(F)(F)F)cc2)N2CCCCC[C@@H](C2=O)N(C)C(=O)CN(C)C1=O [PP0499] | 0.0011 µM | B (a compound having 3 or more and less than 10 is denoted as B) | B (a compound having 3 or more and less than 10 is denoted as B)
CC[C@H](C)[C@@H]1NC(=O)[C@H](CC(C)C)N(C)C(=O)C[C@@H](C(=O)N2CCOCC2)N(C)C(=O)[C@H](C2CCCC2)N(C)C(=O)C2(CCOCC2)NC(=O)[C@@H]2CCCN2C(=O)[C@H](CCc2cc(F)c(C(F)(F)F)c(F)c2)NC(=O)CN(C)C(=O)[C@H](Cc2ccc(C(F)(F)F)cc2)N2CCCCC[C@@H](C2=O)N(C)C(=O)CN(C)C1=O [PP0502] | 0.012 µM | A (a compound having 10 or more and less than 20 is denoted as A) | B (a compound having 3 or more and less than 10 is denoted as B)
CC[C@H](C)[C@@H]1NC(=O)[C@H](CC(C)C)N(C)C(=O)C[C@@H](C(=O)N2CCOCC2)N(C)C(=O)[C@H](C2CCCC2)N(C)C(=O)C(C)(C)NC(=O)[C@@H]2CCCN2C(=O)[C@H](CCc2cc(F)c(C(F)(F)F)c(F)c2)NC(=O)CN(C)C(=O)[C@H](Cc2ccc(C(F)(F)F)cc2)N2CCCCC[C@@H](C2=O)N(C)C(=O)CN(C)C1=O [PP0503] | 0.0044 µM | A (a compound having 10 or more and less than 20 is denoted as A) | B (a compound having 3 or more and less than 10 is denoted as B)
CC[C@H](C)[C@@H]1NC(=O)[C@H](CC(C)C)N(C)C(=O)C[C@@H](C(=O)N2CCOCC2)N(C)C(=O)[C@H](C2CCCCC2)N(C)C(=O)C2(CCCC2)NC(=O)[C@@H]2CCCN2C(=O)[C@H](CCc2cc(F)c(C(F)(F)F)c(F)c2)NC(=O)CN(C)C(=O)[C@H](Cc2ccc(C(F)(F)F)cc2)N2CCCCC[C@@H](C2=O)N(C)C(=O)CN(C)C1=O [PP0505] | 0.01 µM | B (a compound having 3 or more and less than 10 is denoted as B) | B (a compound having 3 or more and less than 10 is denoted as B)
CC[C@H](C)[C@@H]1NC(=O)[C@H](CC(C)C)N(C)C(=O)C[C@@H](C(=O)N2CCOCC2)N(C)C(=O)[C@H](CC(F)(F)F)N(C)C(=O)C2(CCCC2)NC(=O)[C@@H]2CCCN2C(=O)[C@H](CCc2cc(F)c(C(F)(F)F)c(F)c2)NC(=O)CN(C)C(=O)[C@H](Cc2ccc(C(F)(F)F)cc2)N2CCCCC[C@@H](C2=O)N(C)C(=O)CN(C)C1=O [PP0506] | 0.025 µM | B (a compound having 3 or more and less than 10 is denoted as B) | B (a compound having 3 or more and less than 10 is denoted as B)
CC[C@H](C)[C@@H]1NC(=O)[C@H](CC(C)C)N(C)C(=O)C[C@@H](C(=O)N(C)C)N(C)C(=O)[C@H](C2CCCC2)N(C)C(=O)C2(CCCC2)NC(=O)[C@@H]2CCCN2C(=O)[C@H](CCc2cc(F)c(C(F)(F)F)c(F)c2)NC(=O)CN(C)C(=O)[C@H](Cc2ccc(C(F)(F)F)cc2)N2CCCCC[C@@H](C2=O)N(C)C(=O)CN(C)C1=O [PP0507] | 0.00094 µM | B (a compound having 3 or more and less than 10 is denoted as B) | B (a compound having 3 or more and less than 10 is denoted as B)
CC[C@H](C)[C@@H]1NC(=O)[C@H](CC(C)C)N(C)C(=O)C[C@@H](C(=O)N2CCCC2)N(C)C(=O)[C@H](C2CCCC2)N(C)C(=O)C2(CCCC2)NC(=O)[C@@H]2CCCN2C(=O)[C@H](CCc2cc(F)c(C(F)(F)F)c(F)c2)NC(=O)CN(C)C(=O)[C@H](Cc2ccc(C(F)(F)F)cc2)N2CCCCC[C@@H](C2=O)N(C)C(=O)CN(C)C1=O [PP0509] | 0.0024 µM | B (a compound having 3 or more and less than 10 is denoted as B) | B (a compound having 3 or more and less than 10 is denoted as B)
CC[C@H](C)[C@@H]1NC(=O)[C@H](CC(C)C)N(C)C(=O)C[C@@H](C(=O)N2CCCCC2)N(C)C(=O)[C@H](C2CCCC2)N(C)C(=O)C2(CCCC2)NC(=O)[C@@H]2CCCN2C(=O)[C@H](CCc2cc(F)c(C(F)(F)F)c(F)c2)NC(=O)CN(C)C(=O)[C@H](Cc2ccc(C(F)(F)F)cc2)N2CCCCC[C@@H](C2=O)N(C)C(=O)CN(C)C1=O [PP0510] | 0.012 µM | B (a compound having 3 or more and less than 10 is denoted as B) | B (a compound having 3 or more and less than 10 is denoted as B)
CC[C@H](C)[C@@H]1NC(=O)[C@H](CC(C)C)N(C)C(=O)C[C@@H](C(=O)N(C)C)N(C)C(=O)[C@H](C2CCCC2)N(C)C(=O)C2(CCC2)NC(=O)[C@@H]2CCCN2C(=O)[C@H](CCc2cc(F)c(C(F)(F)F)c(F)c2)NC(=O)CN(C)C(=O)[C@H](Cc2ccc(C(F)(F)F)cc2)N2CCCCC[C@@H](C2=O)N(C)C(=O)CN(C)C1=O [PP0512] | 0.00037 µM | B (a compound having 3 or more and less than 10 is denoted as B) | B (a compound having 3 or more and less than 10 is denoted as B)
CC[C@H](C)[C@@H]1NC(=O)[C@H](CC(C)C)N(CC)C(=O)C[C@@H](C(=O)N2CCOCC2)N(C)C(=O)[C@H](C2CCCC2)N(C)C(=O)C2(CCCC2)NC(=O)[C@@H]2CCCN2C(=O)[C@H](CCc2cc(F)c(C(F)(F)F)c(F)c2)NC(=O)CN(C)C(=O)[C@H](Cc2ccc(C(F)(F)F)cc2)N2CCCCC[C@@H](C2=O)N(C)C(=O)CN(C)C1=O [PP0513] | 0.0062 µM | B (a compound having 3 or more and less than 10 is denoted as B) | B (a compound having 3 or more and less than 10 is denoted as B)
CC[C@H](C)[C@@H]1NC(=O)[C@H](CC(C)C)N(C)C(=O)C[C@@H](C(=O)N(C)C)N(C)C(=O)[C@H](C2CCCC2)N(C)C(=O)C2(CCCC2)NC(=O)[C@@H]2CCCN2C(=O)[C@H](CCc2cc(F)c(C(F)(F)F)c(F)c2)NC(=O)CN(C)C(=O)[C@H](Cc2ccc(C(F)(F)F)cc2)N2CCCCC[C@@H](C2=O)N(C)C(=O)CN(CC)C1=O [PP0514] | 0.011 µM | B (a compound having 3 or more and less than 10 is denoted as B) | B (a compound having 3 or more and less than 10 is denoted as B)
CC[C@H](C)[C@@H]1NC(=O)[C@H](CC(C)C)N(C)C(=O)C[C@@H](C(=O)N2CCOCC2)N(C)C(=O)[C@H](C2CCCC2)N(C)C(=O)C2(CCCC2)NC(=O)[C@H](C)N(CC)C(=O)[C@H](CCc2cc(F)c(C(F)(F)F)c(F)c2)NC(=O)CN(C)C(=O)[C@H](Cc2ccc(C(F)(F)F)cc2)N2CCCCC[C@@H](C2=O)N(C)C(=O)CN(C)C1=O [PP0515] | 0.029 µM | B (a compound having 3 or more and less than 10 is denoted as B) | B (a compound having 3 or more and less than 10 is denoted as B)
CC[C@H](C)[C@@H]1NC(=O)[C@H](CC(C)C)NC(=O)C[C@@H](C(=O)N2CCOCC2)N(C)C(=O)[C@H](C2CCCC2)N(C)C(=O)C2(CCCC2)NC(=O)[C@@H]2CCCN2C(=O)[C@H](CCc2cc(F)c(C(F)(F)F)c(F)c2)NC(=O)CN(C)C(=O)[C@H](Cc2ccc(C(F)(F)F)cc2)N2CCCCC[C@@H](C2=O)N(C)C(=O)CN(C)C1=O [PP0516] | 0.01 µM | B (a compound having 3 or more and less than 10 is denoted as B) | B (a compound having 3 or more and less than 10 is denoted as B)
CC[C@H](C)[C@@H]1NC(=O)[C@H](CC(F)(F)F)N(C)C(=O)C[C@@H](C(=O)N2CCOCC2)N(C)C(=O)[C@H](C2CCCC2)N(C)C(=O)C2(CCCC2)NC(=O)[C@@H]2CCCN2C(=O)[C@H](CCc2cc(F)c(C(F)(F)F)c(F)c2)NC(=O)CN(C)C(=O)[C@H](Cc2ccc(C(F)(F)F)cc2)N2CCCCC[C@@H](C2=O)N(C)C(=O)CN(C)C1=O [PP0520] | 0.00099 µM | B (a compound having 3 or more and less than 10 is denoted as B) | B (a compound having 3 or more and less than 10 is denoted as B)
CC[C@H](C)[C@@H]1NC(=O)[C@@H]2CCCCCN2C(=O)C[C@@H](C(=O)N2CCOCC2)N(C)C(=O)[C@H](C2CCCC2)N(C)C(=O)C2(CCCC2)NC(=O)[C@@H]2CCCN2C(=O)[C@H](CCc2cc(F)c(C(F)(F)F)c(F)c2)NC(=O)CN(C)C(=O)[C@H](Cc2ccc(C(F)(F)F)cc2)N2CCCCC[C@@H](C2=O)N(C)C(=O)CN(C)C1=O [PP0521] | 0.072 µM | B (a compound having 3 or more and less than 10 is denoted as B) | B (a compound having 3 or more and less than 10 is denoted as B)
